Where “and” joins values, the source holds several entries; their conditions need not be identical. Identical values can stand only once.
Assays:
[1] = target: T1, Genome polyprotein (dengue virus type 2, UniProt P29990); format: functional, Thailand/16681/1984
[2] = target: T1, Genome polyprotein; format: functional, Thailand/16681/1984; remark: listed apart in the source

T1 sequence (P29990 1346-1475 limits assumed): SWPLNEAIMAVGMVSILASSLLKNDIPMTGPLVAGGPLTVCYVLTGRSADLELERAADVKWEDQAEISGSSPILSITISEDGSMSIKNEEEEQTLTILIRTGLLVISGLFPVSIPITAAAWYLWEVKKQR
T1 sequence (P29990 1476-2093 limits assumed): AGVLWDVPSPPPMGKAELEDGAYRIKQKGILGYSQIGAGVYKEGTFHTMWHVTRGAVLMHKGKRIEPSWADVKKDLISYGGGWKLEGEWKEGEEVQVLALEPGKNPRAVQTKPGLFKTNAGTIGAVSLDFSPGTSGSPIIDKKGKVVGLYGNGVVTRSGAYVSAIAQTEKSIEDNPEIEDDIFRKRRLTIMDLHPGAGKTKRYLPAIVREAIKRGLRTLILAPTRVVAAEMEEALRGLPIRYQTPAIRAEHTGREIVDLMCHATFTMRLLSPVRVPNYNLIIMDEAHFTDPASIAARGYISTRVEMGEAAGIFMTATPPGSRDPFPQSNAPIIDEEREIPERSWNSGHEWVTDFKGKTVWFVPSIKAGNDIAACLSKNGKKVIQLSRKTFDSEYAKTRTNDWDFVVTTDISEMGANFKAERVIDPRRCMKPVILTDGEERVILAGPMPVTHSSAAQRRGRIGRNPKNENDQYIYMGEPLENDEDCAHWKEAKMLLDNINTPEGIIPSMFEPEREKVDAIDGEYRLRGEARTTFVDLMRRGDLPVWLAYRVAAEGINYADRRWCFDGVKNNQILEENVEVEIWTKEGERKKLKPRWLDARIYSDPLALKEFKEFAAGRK

SMILES | IC50 [1] | IC50 [2]
CC(=O)N1CCC([C@H](NC(=O)OCc2ccccc2)C(=O)Nc2cccc(CN)c2)CC1 | > 99.5 µM | > 100 µM
CCCCSc1ccc(Cl)cc1C(=O)Nc1cccc(CN)c1 | > 99.5 µM | > 100 µM
NCc1cccc(NC(=O)c2cc(NC(=O)OCc3ccccc3)cc3c2OCCO3)c1 | > 99.5 µM | > 100 µM
NCc1cccc(NC(=O)[C@H](NC(=O)OCc2ccccc2)C2CCN(C(=O)C3CCOCC3)CC2)c1 | > 99.5 µM | > 100 µM
CNCCS(=O)(=O)N1CCC([C@H](NC(=O)OCc2ccccc2)C(=O)Nc2cccc(CN)c2)CC1 | > 99.5 µM | > 100 µM
CCN(C)S(=O)(=O)N1CCC([C@H](NC(=O)OCc2ccccc2)C(=O)Nc2cccc(CN)c2)CC1 | > 99.5 µM | > 100 µM
CC(C)CC(=O)N1CCC([C@H](NC(=O)OCc2ccccc2)C(=O)Nc2cccc(CN)c2)CC1 | > 99.5 µM | > 100 µM
COCCOc1ccc(Cl)cc1C(=O)Nc1cccc(CN)c1 | > 99.5 µM | > 100 µM
NCc1cccc(NC(=O)c2cc(Cl)ccc2OC2CCCC2)c1 | > 99.5 µM | > 100 µM
CC(C)N1CCC([C@H](NC(=O)OCc2ccccc2)C(=O)Nc2cccc(CN)c2)CC1 | > 99.5 µM | > 100 µM
CN(C)Cc1cccc(C(=O)Nc2cccc(CN)c2)c1 | > 99.5 µM | > 100 µM
CS(=O)(=O)Nc1ccc(Cl)cc1C(=O)Nc1cccc(CN)c1 | > 99.5 µM | > 100 µM
O=C(Nc1cc(Cl)cc(C(=O)Nc2cccc([C@H]3CCNC3)c2)c1)OCc1ccccc1 | 33.3 µM and 58.3 µM and 41.4 µM | 95.4 µM and > 100 µM
NCc1cccc(NC(=O)[C@H](NC(=O)OCc2ccccc2)C2CCN(Cc3ccccn3)CC2)c1 | > 99.5 µM | > 100 µM
NC12CCC(CNC(=O)c3cc(Cl)cc(NC(=O)OCc4ccccc4)c3)(CC1)OC2 | > 99.5 µM | > 100 µM
Clc1ccc(-c2cc(CN3CCC(c4cscn4)CC3)[nH]n2)cc1 | > 99.5 µM | > 100 µM

SMILES | IC50 [1] | IC50 [2]
CCS(=O)(=O)c1ccc(Cl)cc1C(=O)Nc1cccc(CN)c1 | > 99.5 µM | > 100 µM
Cn1nc([C@@H]2CCCN2)nc1NC(=O)c1cc(Cl)cc(NC(=O)OCc2ccccc2)c1 | > 99.5 µM | > 100 µM
CC(C)(C#N)CS(=O)(=O)N1CCC([C@H](NC(=O)OCc2ccccc2)C(=O)Nc2cccc(CN)c2)CC1 | > 99.5 µM | > 100 µM
NCCCc1ccnc(NC(=O)c2cc(Cl)cc(NC(=O)OCc3ccccc3)c2)c1 | 48.2 µM | > 100 µM
NCc1cccc(NC(=O)[C@H](NC(=O)OCc2ccccc2)C2CCN(C(=O)c3ccco3)CC2)c1 | > 99.5 µM | > 100 µM
O=c1ccc(N2CCN(Cc3c[nH]c4ccccc34)CC2)n[nH]1 | > 99.5 µM | > 100 µM
NCc1cccc(NC(=O)c2cc(Cl)cc(C3CC3)c2)c1 | > 99.5 µM | > 100 µM
Cc1c(CN)cccc1NC(=O)c1cc(Cl)cc(NC(=O)OCc2ccccc2)c1 | > 99.5 µM | > 100 µM
NCc1cccc(NC(=O)[C@H](NC(=O)OCc2ccccc2)C2CCN(S(=O)(=O)c3cccnc3)CC2)c1 | > 99.5 µM | > 100 µM
NCc1cccc(NC(=O)c2cc(Cl)cc3c2NCCC3)c1 | > 99.5 µM | > 100 µM
NCc1cccc(NC(=O)c2cc(Cl)cc3c2OCC3)c1 | > 99.5 µM | > 100 µM
NCc1ccc(O)c(NC(=O)c2cc(Cl)cc(NC(=O)OCc3ccccc3)c2)c1 | 74.5 µM | > 100 µM
Cc1ccc(NC(=O)c2cc(Cl)cc(NC(=O)OCc3ccccc3)c2)cc1CN | > 99.5 µM and 95.8 µM | > 100 µM
CCOCCS(=O)(=O)N1CCC([C@H](NC(=O)OCc2ccccc2)C(=O)Nc2cccc(CN)c2)CC1 | > 99.5 µM | > 100 µM
COCCN1C(=O)C[C@H](C(=O)Nc2cccc(CN)c2)[C@H]1c1ccc(Cl)c(F)c1 | > 99.5 µM | > 100 µM
NCc1cccc(NC(=O)c2cc(Cl)cc3c2CCC3)c1 | > 99.5 µM | > 100 µM

From ChEMBL document CHEMBL5604063, “ASAP - DENV-2 NS2B-NS3 protease fluorescence dose response” (2024)
